Patent US20040191842A1, “Chemopreventive and therapeutic aspects of polyphenolic compositions and assays” (Medical College of Georgia Research Institute, Inc., priority 2002, published 2004)
Several values for one entry are separate records, joined by “and”; a condition that tells them apart may be missing. Identical values can stand only once.

Assays:
[1] = as stated in Example 9; read-out: Cmax in the plasma; cited from earlier work
[2] = cited from earlier work
MCF7 (C) cells = experiment: Morphological analysis, MCF7(C) cells; type: cell-based, human; conditions: EGCG, 48 hours
From the text: Cell lines and cell culture. The normal human keratinocytes (NHEK CC-2507) were purchased from Cambrex (East Rutherford, N.J.) and maintained in KGM-2 medium (Cambrex). The OSC2 cell line was previously described (Osaki et al., Eur J Cancer B Oral Oncol 1994; 30 B:296-301). The breast carcinoma MCF7 cell line was purchased from American Type Culture Collection. The MCF7(C) caspase+cell line “7-3-28 ” was established and tested as previously described (Janicke et al., J Biol Chem 1998; 273:9357-60, Blanc et al., Cancer Res 2000; 60:4386-90). These tumor cells were maintained in 45% Dulbecco's Modified Eagle's Medium (DMEM), 45% Ham's F12 medium and 10% fetal calf serum, 100 I.U/ml penicillin, 100 μg/ml streptomycin and 5 μg/ml hydrocortisone. All cell cultures were maintained in a 37° C. incubator with 5% CO2. Light microscopic photographs were taken with a SPOT RT digital camera system (Diagnostic Instruments) linked to a Nikon Phase Contrast-2 microscope at an original magnification of 200×.

OSC2 cells [3] = experiment: Cell growth assay, OSC2 cells; type: cell-based, human; conditions: 50 μM EGCG, day four
Procedure: Cell growth assay. Cells (2×10^5) were seeded in each T25 culture flask with 5 ml DMEM/F12 medium for 48 hours. The treatments were started with 50 μM EGCG for 24 hours, 48 hours and 96 hours. At each time point, the cell numbers were counted using a hemacytometer with the presence of Trypan blue.

[4] = system: aged normal human primary epidermal keratinocytes; experiment: MTT assay (SDH activity), aged keratinocytes; type: cell-based
Procedure: Culturing normal human epithelial cells. The pooled normal human primary epidermal keratinocytes were purchased from Cambrex (Baltimore, Md.) and sub-cultured in the specific growth media provided by the manufacturer (KGM-2). […] Exponentially growing keratinocytes were treated and harvested in their early passages (2-3 passages).

p57 (KIP2) = type: cell-based, human
Procedure: Cell treatments. For 24 hours treatments, exponentially growing cells with 40% confluency (to minimize differentiation and spontaneous apoptosis) were either maintained in 50 μM EGCG (2.29 mg/100 ml) or 0.2 mg/ml of GTPPs in tissue culture flasks (25 cm^2). Control flasks contained cells without any treatment. To test whether BaP or NNK interfere with the induction of p57, the human keratinocytes were treated with 0.12 μM BaP, or 10 μM NNK, either alone or in combination with 50 μM EGCG. To examine the time course of p57 induction, cells were treated with 50 μM EGCG and harvested for Western analysis at 30 minutes, 2 hours, 6 hours, and 24 hours. The human keratinocytes were treated when the cell density reached 85-90% confluency (to mimic the epithelium).
In a parallel series of experiments, treatment with EGCG was performed with 30 micrograms per milliliter (μg/ml) cycloheximide added to the keratinocyte media 30 minutes prior to the addition of EGCG. The dose-response experiments were performed using EGCG concentrations at 30, 50 100, and 200 μM in the culture media for 24 hours.
Western blot analysis. Cells from different treatment groups were lysed in RIPA buffer (1% NP-40, 1% sodium deoxycholate, 0.1% SDS, 0.15 M NaCl, 0.01 M sodium phosphate, pH 7.2, and 1% Trasylol) containing proteinase inhibitors (1 mM PMSF, 1 μg/ml each of aprotinin, leupeptin, and pepstatin). The concentration of protein in each sample was determined using the BioRad DC Protein Assay and spectrophotometry. Fifty micrograms (μg) of protein from each sample and a BioRad molecular weight standard marker were run on a 10% SDS-PAGE, followed by transfer to nitrocellulose membranes. Nonspecific binding to membranes was blocked with 10% nonfat milk. Specific primary polyclonal (rabbit) antibody against p57 and a horse radish peroxidase-conjugated goat anti-rabbit secondary antibody were used in conjunction with the ECL Chemiluminescence Kit and membranes were exposed to radiographic films for detection.

OSC-2 cells = experiment: MTT assay (mitochondrial SDH activity), OSC2 (OSC-2) cells; conditions: increasing EGCG and 0.2 mg/ml GTPPs, 24 hour
Procedure: This method detects the activity of mitochondrial succinate dehydrogenase (SDH). In a 96-well plate, 1.5×10^4 cells were seeded in each well. After variety of treatments, 100 μl of 2% MTT was added to each well and the plate was incubated at 37° C. for 30 minutes. 100 μl of 0.2 M Tris (pH 7.7) with 4% formalin was added to each well. After incubation at room temperature for 5 minutes, liquid was removed and the wells were allowed to dry. Each well was rinsed with 200 μl water followed by addition of 100 μl DMSO (6.35% 0.1 N NaOH in DMSO) to each well. The coloration was measured by a Thermo MAX microplate reader (Molecular Devices Corp. Sunnyvale, Calif. using wavelengths of 562 nm. Experiments were repeated three times with triplicate samples for each experiment.
This method directly detects the activity of mitochondrial succinate dehydrogenase (SDH). Changes in SDH activity is a measurement of cell viability when stress is introduced in cell culture through chemical or physical means. Cells (1.5×10^4 cells/well) were seeded in a 96-well microplate and treated with the indicated doses of EGCG for 24 hours. After the treatment, the cells in each well were washed with 200 μl of phosphate-buffered saline (PBS), incubated with 100 μl of 2% MTT in a solution of 0.05 M Tris, 0.5 mM MgCl2, 2.5 mM CoCl2, and 0.25 M disodiumn succinate as substrate (Sigma) at 37° C. for 30 minutes. Cells were fixed in situ by the addition of 100 μl of 4% formalin in 0.2 M Tris (pH 7.7), and after a 5 minute incubation at room temperature liquid was removed and the wells were allowed to dry. Each well was rinsed with 200 μl water and cells were solubilized by the addition of 100 μl of 6.35% 0.1 N NaOH in DMSO. The colored formazan product was measured by a Thermo MAX micro plate reader (Molecular Devices Corp., Sunnyvale, Calif.) at a wavelength of 562 nm. […]
This method directly detects the activity of mitochondrial succinate dehydrogenase (SDH). […] Solubilized colored formazan product was measured using a Thermo MAX microplate reader (Molecular Devices Corp., Sunnyvale, Calif.) at a wavelength of 562 nm.

OSC2 cells [5] = experiment: BrdU incorporation assay, OSC2 (OSC-2) cells; type: cell-based, human
Procedure: DNA synthesis analysis using BrdU incorporation method. The BrdU cell proliferation kit was purchased from Oncogene Research Products, Boston, Mass. Cells were culture in 96 well plates with 10^4 cells/well. After EGCG and GTPPs treatments, cells were labeled by BrdU, reacted with BrdU antibody and the color reaction was carried out according to the protocol provided by the manufacturer. The coloration was measure by a Thermo MAX microplate reader using wavelengths 450 nm-562 nm.
(§1) DNA synthesis assay. DNA synthesis was analyzed by a BrdU Cell Proliferation Assay Kit (Oncogene Research Products, Boston, Mass.). […] After the treatment, cells were labeled with BrdU for 2 hours at 37° C. and reacted with anti-BrdU antibody. Unbound antibody in each well was removed by rinsing, and horseradish peroxidase-conjugated goat anti-mouse antibody was added to each well. The color reaction was visualized according to the protocol provided by the manufacturer.
as §1, with “cell proliferation assay kit” for “Cell Proliferation Assay Kit”, “anti-mouse IgG” for “anti-mouse”, “reaction to visualize the secondary antibody” for “reaction”, “carried out” for “visualized”

O=C(O[C@@H]1Cc2c(O)cc(O)cc2O[C@@H]1c1cc(O)c(O)c(O)c1)c1cc(O)c(O)c(O)c1 [EGCG, (−)-epigallocatechin-3-gallate]
Cmax [1]: 10 µM
EGCG secreted from human saliva ([2]; after two to three cups of green tea): ≤ 50 μM and ≤ 22.9 μg/ml
absorption through the oral mucosa ([2]; humans): rapidly absorbed through the oral mucosa
morphology (MCF7 (C) cells): significantly reduced the cell number and produced cell blebbing
cell number compared to controls (OSC2 cells [3]): 50%
SDH activity and BrdU incorporation ([4]; EGCG concentrations higher than 100 μM): consistently induced both SDH activity and BrdU incorporation
activation of succinate dehydrogenase (SDH), MTT assay ([4]; keratinocytes 25 days in culture, 24 h treatment): up to 37 fold
p57 protein accumulation (p57 (KIP2); 50 μM EGCG or 0.2 mg/ml GTPPs, 24 h, 40% confluency): accumulated in normal human epithelial cells
EGCG-stimulated p57 protein accumulation when BaP and NNK were present (p57 (KIP2); 50 μM EGCG with 0.12 μM BaP or 10 μM NNK): still occurred
time of peak p57 expression (p57 (KIP2); 50 μM EGCG, cell density 90%): 6 h
p57 levels over 24 hours (p57 (KIP2); 100 μM or 200 μM EGCG, 90% confluency): remained high throughout the 24 hours period
SDH activities (OSC-2 cells): decreased
BrdU incorporation, of control levels (OSC2 cells [5]; 200 μM EGCG): approximately 75%
reduction of BrdU incorporation (OSC2 cells [5]; 200 μM EGCG, 24-hour period): approximately 25%
BrdU incorporation (OSC2 cells [5]; EGCG concentrations reached 50 μM, or GTPPs): ceased BrdU incorporation
